US10975037B2 (priority 2018, dated 2021)
Counter-ions that a name gives are not always drawn. Like-named read-outs stand apart in the source and are kept apart here.

Key:
[1] = biological target: human RORγt ligand binding domain (RORγt LBD) (Homo sapiens (Human), UniProt P51449); assay: RORγt ThermoFluor® assay (thermal shift binding)
In short: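 Thermal shift with 0.065 mg/mL RORγt LBD and 60 μM 1,8-ANS in 100 mM Hepes pH 7.0, 10 mM NaCl, 2.5 mM GSH, 0.002% Tween-20.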

[2] = biological target: full-length human RORγt (Homo sapiens (Human), UniProt P51449); assay: RORγt (full-length human) reporter assay, conditions A or B, HEK293T cells; format: cell-based; conditions: for IC50: RORγt (FL) Reporter Assay A or B, IC50, HEK293T cells; for inhibition at 6 µM: read-out: RORγt (FL) Reporter Assay A or B, % inhibition @ 6 μM, 6 μM compound concentration
In short: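 After 16–20 h, dual firefly/Renilla luciferase luminescence was read. Firefly signal was normalized to DMSO and saturating reference compound, then to Renilla, and fitted for IC50; % inhibition is versus DMSO.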

[3] = read-out: ThermoFluor® Assay, Kd
[4] = HEK-293T, 0.22 μM compound concentration (footnote *******), read-out: RORγt (FL) Reporter Assay A or B, % inhibition
[5] = HEK-293T, 2 μM compound concentration, read-out: RORγt (FL) Reporter Assay A or B, % inhibition
[6] = HEK-293T, read-out: RORγt (FL) Reporter Assay A or B, % inhibition
[7] = HEK-293T, 0.67 μM compound concentration (footnote ****), read-out: RORγt (FL) Reporter Assay A or B, % inhibition

human RORγt ligand binding domain (RORγt LBD), sequence (P51449 other isoform, or with tags, fused parts or gaps): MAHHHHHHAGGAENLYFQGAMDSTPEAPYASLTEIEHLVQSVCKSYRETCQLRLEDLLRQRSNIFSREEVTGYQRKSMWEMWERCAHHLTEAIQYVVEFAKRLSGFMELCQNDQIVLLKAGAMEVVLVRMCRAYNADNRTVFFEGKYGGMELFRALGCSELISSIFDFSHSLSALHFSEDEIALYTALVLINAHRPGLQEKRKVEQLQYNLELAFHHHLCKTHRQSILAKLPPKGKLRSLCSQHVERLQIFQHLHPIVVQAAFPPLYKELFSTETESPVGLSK
full-length human RORγt, sequence (P51449 other isoform, or with tags, fused parts or gaps): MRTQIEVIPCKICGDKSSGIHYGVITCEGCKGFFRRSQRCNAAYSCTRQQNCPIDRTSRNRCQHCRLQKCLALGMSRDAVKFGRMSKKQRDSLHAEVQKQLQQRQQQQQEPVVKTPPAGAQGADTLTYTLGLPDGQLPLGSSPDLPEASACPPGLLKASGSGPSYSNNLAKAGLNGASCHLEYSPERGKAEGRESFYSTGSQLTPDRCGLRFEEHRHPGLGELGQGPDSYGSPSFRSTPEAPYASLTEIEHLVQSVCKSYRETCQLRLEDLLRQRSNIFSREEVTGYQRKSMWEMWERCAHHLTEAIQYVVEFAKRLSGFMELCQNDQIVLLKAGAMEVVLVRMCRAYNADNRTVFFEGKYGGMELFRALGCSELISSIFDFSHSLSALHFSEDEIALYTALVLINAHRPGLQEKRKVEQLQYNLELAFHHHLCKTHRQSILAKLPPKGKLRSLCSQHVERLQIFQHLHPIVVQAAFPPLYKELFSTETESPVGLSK

Row | Kd [1, 3] [nM] | IC50 [2] [nM] | SMILES | further results
1 | 2.4 | 0.44 | CCn1nc(C(=O)NC[C@H]2CC[C@H](S(C)(=O)=O)CC2)c(C)c1-c1ccc(CCC(F)(F)F)cc1OC(F)F [Example 224, 5-(2-(Difluoromethoxy)-4-(3,3,3-trifluoropropyl)phenyl)-1-ethyl-4-methyl-N-(((1r,4r)-4-(methylsulfonyl)cyclohexyl)methyl)-1H-pyrazole-3-carboxamide] | inhibition at […] ([2]; HEK-293T, 0.11 μM compound concentration (footnote ********), read-out: RORγt (FL) Reporter Assay A or B, % inhibition): 95%
2 | 27 | 150 | CCn1nc(C(=O)NC[C@]2(O)CC[C@@H](S(C)(=O)=O)CC2)c(C#N)c1-c1ccc(CC(C)C(F)(F)F)cc1OC (some centres unmarked) [Example 122, 4-Cyano-1-ethyl-N-(((1s,4s)-1-hydroxy-4-(methylsulfonyl)cyclohexyl)methyl)-5-(2-methoxy-4-(3,3,3-trifluoro-2-methylpropyl)phenyl)-1H-pyrazole-3-carboxamide] | inhibition at 6 µM ([2]; HEK-293T): 104%
3 | 0.48 | 5.9 | CCn1nc(C(=O)NC[C@H]2CC[C@H](S(C)(=O)=O)CC2)c(Cl)c1-c1ccc(CC(C)(C)C(F)(F)F)cc1C(F)(F)F [Example 162, 4-Chloro-1-ethyl-N-(((1r,4r)-4-(methylsulfonyl)cyclohexyl)methyl)-5-(4-(3,3,3-trifluoro-2,2-dimethylpropyl)-2-(trifluoromethyl)phenyl)-1H-pyrazole-3-carboxamide] | inhibition at […] [2, 4]: 72%
4 | 40 | 150 | CCn1nc(C(=O)NC[C@H]2CC[C@H](S(C)(=O)=O)CC2)c(Cl)c1-c1ccc(N2CC(C(F)(F)F)C2)cc1OC [Example 208, 4-Chloro-1-ethyl-5-(2-methoxy-4-(3-(trifluoromethyl)azetidin-1-yl)phenyl)-N-(((1r,4r)-4-(methylsulfonyl)cyclohexyl)methyl)-1H-pyrazole-3-carboxamide] | inhibition at 2 µM [2, 5]: 87%
5 | 3.3 | 13 | CCn1nc(C(=O)NC[C@]2(O)CC[C@@H](S(C)(=O)=O)CC2)c(Cl)c1-c1ccc(C(=O)C(C)(C)C(F)(F)F)cc1OC(F)F [Example 105, 4-Chloro-5-(2-(difluoromethoxy)-4-(3,3,3-trifluoro-2,2-dimethylpropanoyl)phenyl)-1-ethyl-N-(((1s,4s)-1-hydroxy-4-(methylsulfonyl)cyclohexyl)methyl)-1H-pyrazole-3-carboxamide] | inhibition at 3 µM [2, 6]: 28%
6 | 34 | 77 | CCn1nc(C(=O)NC[C@H]2CC[C@H](S(C)(=O)=O)CC2)c(Cl)c1-c1ccc(OCCC(F)(F)F)cc1OC [Example 213, 4-Chloro-1-ethyl-5-(2-methoxy-4-(3,3,3-trifluoropropoxy)phenyl)-N-(((1r,4r)-4-(methylsulfonyl)cyclohexyl)methyl)-1H-pyrazole-3-carboxamide] | inhibition at 2 µM [2, 5]: 77%
7 | 9.6 | 35 | CCn1nc(C(=O)NC[C@H]2CC[C@H](S(C)(=O)=O)CC2)c(C#N)c1-c1ccc(CC(C)C(F)(F)F)cc1OC (some centres unmarked) [Example 123, 4-Cyano-1-ethyl-5-(2-methoxy-4-(3,3,3-trifluoro-2-methylpropyl)phenyl)-N-(((1r,4r)-4-(methylsulfonyl)cyclohexyl)methyl)-1H-pyrazole-3-carboxamide] | inhibition at 2 µM [2, 5]: 85%
8 | 0.71 | 0.92 | CCn1nc(C(=O)NC[C@]2(C#N)CC[C@@H](S(C)(=O)=O)CC2)c(Cl)c1-c1ccc(CC(C)(C)C(F)(F)F)cc1Cl [Example 166, 4-Chloro-5-(2-chloro-4-(3,3,3-trifluoro-2,2-dimethylpropyl)phenyl)-N-(((1s*,4s*)-1-cyano-4-(methylsulfonyl)cyclohexyl)methyl)-1-ethyl-1H-pyrazole-3-carboxamide] | inhibition at 0.07 µM ([2]; HEK-293T, 0.07 μM compound concentration (footnote *********), read-out: RORγt (FL) Reporter Assay A or B, % inhibition): 88%
9 | 4 | 18 | CCn1nc(C(=O)NC[C@H]2CC[C@H](S(C)(=O)=O)CC2)c(Cl)c1-c1ccc(CC(C)(C)C(F)(F)F)cc1 [Example 168, 4-Chloro-1-ethyl-N-(((1r,4r)-4-(methylsulfonyl)cyclohexyl)methyl)-5-(4-(3,3,3-trifluoro-2,2-dimethylpropyl)phenyl)-1H-pyrazole-3-carboxamide] | inhibition at […] [2, 4]: 71%
10 | 2.4 | 30 | CCn1nc(C(=O)NC[C@]2(O)CC[C@@H](S(C)(=O)=O)CC2)c(Cl)c1-c1ccc(CC(C)(C)C(F)(F)F)cc1F [Example 178, 4-Chloro-1-ethyl-5-(2-fluoro-4-(3,3,3-trifluoro-2,2-dimethylpropyl)phenyl)-N-(((1s,4s)-1-hydroxy-4-(methylsulfonyl)cyclohexyl)methyl)-1H-pyrazole-3-carboxamide] | inhibition at 0.67 µM [2, 7]: 89%
11 | 29 | 120 | CCn1nc(C(=O)NC[C@H]2CC[C@H](S(C)(=O)=O)CC2)c(Cl)c1-c1ccc(N[C@H](C)C(F)(F)F)cc1 [Example 194, 4-Chloro-1-ethyl-N-(((1r,4R)-4-(methylsulfonyl)cyclohexyl)methyl)-5-(4-(((R)-1,1,1-trifluoropropan-2-yl)amino)phenyl)-1H-pyrazole-3-carboxamide] | inhibition at 2 µM [2, 5]: 93%
12 | 0.83 | 6 | COCCn1nc(C(=O)NC[C@]2(O)CC[C@@H](S(C)(=O)=O)CC2)c(Cl)c1-c1ccc(CC(C)(C)C(F)(F)F)cc1OC(F)F [Example 149, 4-Chloro-5-(2-(difluoromethoxy)-4-(3,3,3-trifluoro-2,2-dimethylpropyl)phenyl)-N-(((1s,4s)-1-hydroxy-4-(methylsulfonyl)cyclohexyl)methyl)-1-(2-methoxyethyl)-1H-pyrazole-3-carboxamide] | inhibition at 2 µM [2, 5]: 99%
13 | 4.8 | > 2000 | CCn1nc(C(=O)NC[C@H]2CC[C@H](S(C)(=O)=O)CC2)c(Cl)c1-c1ccc(CCC(F)(F)F)cc1OC(F)(F)F [Example 189, 4-Chloro-1-ethyl-N-(((1r,4r)-4-(methylsulfonyl)cyclohexyl)methyl)-5-(2-(trifluoromethoxy)-4-(3,3,3-trifluoropropyl)phenyl)-1H-pyrazole-3-carboxamide] | inhibition at 2 µM [2, 6]: 47%
14 | 7.4 | 60 | COc1cc(N[C@H](C)C(F)(F)F)ccc1-c1c(Cl)c(C(=O)NC[C@]2(O)CC[C@@H](S(C)(=O)=O)CC2)nn1C(C)(C)C [Example 27, 1-(tert-Butyl)-4-chloro-N-(((1s,4S)-1-hydroxy-4-(methylsulfonyl)cyclohexyl)methyl)-5-(2-methoxy-4-(((R)-1,1,1-trifluoropropan-2-yl)amino)phenyl)-1H-pyrazole-3-carboxamide] | inhibition at 6 µM ([2]; HEK-293T): 105%
15 | 170 | 770 | CCn1nc(C(=O)NC[C@]2(O)CC[C@@H](S(C)(=O)=O)CC2)c(C#N)c1-c1ccc(CCC(F)(F)F)cc1OC [Example 124, 4-Cyano-1-ethyl-N-(((1s,4s)-1-hydroxy-4-(methylsulfonyl)cyclohexyl)methyl)-5-(2-methoxy-4-(3,3,3-trifluoropropyl)phenyl)-1H-pyrazole-3-carboxamide] | inhibition at 6 µM ([2]; HEK-293T): 83%
16 | 5.9 | 38 | CCn1nc(C(=O)NC[C@H]2CC[C@H](S(C)(=O)=O)CC2)c(Cl)c1-c1ccc(CCC(F)(F)F)cc1Cl [Example 174, 4-Chloro-5-(2-chloro-4-(3,3,3-trifluoropropyl)phenyl)-1-ethyl-N-(((1r,4r)-4-(methylsulfonyl)cyclohexyl)methyl)-1H-pyrazole-3-carboxamide] | inhibition at 0.67 µM [2, 6]: 40%
17 | 2 | 21 | CCn1nc(C(=O)NC[C@H]2CC[C@H](S(C)(=O)=O)CC2)c(Cl)c1-c1c(F)cc(CC(C)C(F)(F)F)cc1F (some centres unmarked) [Example 197, 4-Chloro-5-(2,6-difluoro-4-(3,3,3-trifluoro-2-methylpropyl)phenyl)-1-ethyl-N-(((1r,4r)-4-(methylsulfonyl)cyclohexyl)methyl)-1H-pyrazole-3-carboxamide] | inhibition at 0.67 µM [2, 7]: 70%
18 |  | 9.1 | CCn1nc(C(=O)NC[C@H]2CC[C@H](S(C)(=O)=O)CN2)c(Cl)c1-c1ccc(CC(C)(C)C(F)(F)F)cc1OC(F)F (stereo in doubt) [Example 9, 4-Chloro-5-(2-(difluoromethoxy)-4-(3,3,3-trifluoro-2,2-dimethylpropyl)phenyl)-1-ethyl-N-(((2R*,5S*)-5-(methylsulfonyl)piperidin-2-yl)methyl)-1H-pyrazole-3-carboxamide hydrobromide] | Kd ([1]; ThermoFluor® Assay, Kd): 1.6 nM; inhibition at 1 µM ([2]; HEK-293T, 1 μM compound concentration (footnote ***), read-out: RORγt (FL) Reporter Assay A or B, % inhibition): 104%

Row | SMILES | Kd [1, 3] [nM] | IC50 [2] [nM] | further results
19 | CCn1nc(C(=O)NC[C@]2(O)CC[C@@H](S(C)(=O)=O)CC2)c(Cl)c1-c1ccc(CC(C)(C)C(F)(F)F)cc1Cl [Example 164, 4-Chloro-5-(2-chloro-4-(3,3,3-trifluoro-2,2-dimethylpropyl)phenyl)-1-ethyl-N-(((1s,4s)-1-hydroxy-4-(methylsulfonyl)cyclohexyl)methyl)-1H-pyrazole-3-carboxamide] | 0.5 | 6.6 | 
